Assay results from patent publication US20200262813A1, “1,5,7-TRISUBSTITUTED ISOQUINOLINE DERIVATIVES, PREPARATION THEREOF, AND USE THEREOF IN MEDICINES” (SHANGHAI HAIYAN PHARMACEUTICAL TECHNOLOGY CO., LTD., priority 2016, published 2020).
Read-outs that look alike come from different tables or passages of the source.

How the values were obtained:
[1] = biological target: Recombinant PRC2 (EZH2-Y641F) (Homo sapiens, UniProt Q15910, Y641F); test: In vitro methyltransferase activity test (LANCE Ultra); settings: LANCE Ultra detection, 3 hours reaction;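 also: compounds tested as an 8-point threefold dilution series, fluorescence read after 1 h detection step at room temperature, IC50 derived from a four-parameter curve fit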
Recombinant PRC2 (EZH2-Y641F), sequence (Q15910 whole entry Y641F): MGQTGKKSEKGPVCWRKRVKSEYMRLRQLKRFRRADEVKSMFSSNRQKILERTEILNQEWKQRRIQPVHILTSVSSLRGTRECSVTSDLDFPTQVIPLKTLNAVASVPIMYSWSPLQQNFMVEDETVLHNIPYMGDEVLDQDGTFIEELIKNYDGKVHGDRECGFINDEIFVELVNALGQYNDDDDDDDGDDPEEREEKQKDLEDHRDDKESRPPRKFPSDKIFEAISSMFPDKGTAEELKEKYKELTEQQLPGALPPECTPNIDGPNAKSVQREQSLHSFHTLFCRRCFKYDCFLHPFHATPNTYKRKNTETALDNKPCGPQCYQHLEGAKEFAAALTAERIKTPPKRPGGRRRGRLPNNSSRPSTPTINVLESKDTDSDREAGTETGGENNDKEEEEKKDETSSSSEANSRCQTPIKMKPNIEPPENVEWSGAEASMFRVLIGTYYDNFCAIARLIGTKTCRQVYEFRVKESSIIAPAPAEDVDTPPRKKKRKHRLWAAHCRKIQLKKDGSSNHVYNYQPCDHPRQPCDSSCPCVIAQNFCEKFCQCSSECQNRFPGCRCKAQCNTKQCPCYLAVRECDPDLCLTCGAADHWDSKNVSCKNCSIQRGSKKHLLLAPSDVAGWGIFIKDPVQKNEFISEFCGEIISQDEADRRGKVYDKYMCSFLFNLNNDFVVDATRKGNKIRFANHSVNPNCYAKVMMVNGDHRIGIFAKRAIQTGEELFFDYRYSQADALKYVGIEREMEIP
Recombinant PRC2 (EZH2-Y641F), sequence (O75530 whole entry partner): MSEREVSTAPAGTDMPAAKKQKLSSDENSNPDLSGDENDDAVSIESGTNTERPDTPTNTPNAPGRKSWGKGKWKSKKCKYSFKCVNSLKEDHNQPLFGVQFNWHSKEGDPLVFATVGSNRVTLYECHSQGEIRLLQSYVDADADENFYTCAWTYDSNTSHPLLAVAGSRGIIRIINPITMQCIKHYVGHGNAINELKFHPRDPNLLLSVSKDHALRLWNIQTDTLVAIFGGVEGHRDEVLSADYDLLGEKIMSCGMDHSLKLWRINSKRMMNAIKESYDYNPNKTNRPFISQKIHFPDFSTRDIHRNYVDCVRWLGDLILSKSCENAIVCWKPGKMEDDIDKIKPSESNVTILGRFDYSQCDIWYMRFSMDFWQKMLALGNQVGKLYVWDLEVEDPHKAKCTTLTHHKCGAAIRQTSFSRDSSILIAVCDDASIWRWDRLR
Recombinant PRC2 (EZH2-Y641F), sequence (Q15022 whole entry partner): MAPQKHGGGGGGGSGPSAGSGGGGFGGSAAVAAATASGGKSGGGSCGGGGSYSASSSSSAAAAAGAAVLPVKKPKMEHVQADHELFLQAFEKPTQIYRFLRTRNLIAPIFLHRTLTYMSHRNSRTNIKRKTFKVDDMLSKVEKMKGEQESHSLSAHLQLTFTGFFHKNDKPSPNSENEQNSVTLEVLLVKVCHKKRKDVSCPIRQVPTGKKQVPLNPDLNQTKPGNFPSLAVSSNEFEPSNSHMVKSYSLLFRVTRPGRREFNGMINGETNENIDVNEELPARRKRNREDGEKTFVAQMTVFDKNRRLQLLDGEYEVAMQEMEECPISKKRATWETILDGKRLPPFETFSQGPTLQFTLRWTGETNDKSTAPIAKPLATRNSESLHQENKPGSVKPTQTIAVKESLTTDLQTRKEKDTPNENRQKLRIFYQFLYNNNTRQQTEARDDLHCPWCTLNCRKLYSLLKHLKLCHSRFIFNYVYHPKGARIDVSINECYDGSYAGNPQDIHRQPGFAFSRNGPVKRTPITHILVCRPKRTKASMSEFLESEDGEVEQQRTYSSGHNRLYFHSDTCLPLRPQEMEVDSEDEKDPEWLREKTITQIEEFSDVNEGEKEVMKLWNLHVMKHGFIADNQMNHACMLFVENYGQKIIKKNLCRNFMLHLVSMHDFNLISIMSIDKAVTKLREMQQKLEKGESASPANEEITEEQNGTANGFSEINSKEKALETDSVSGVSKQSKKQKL
Recombinant PRC2 (EZH2-Y641F), sequence (Q09028 whole entry partner): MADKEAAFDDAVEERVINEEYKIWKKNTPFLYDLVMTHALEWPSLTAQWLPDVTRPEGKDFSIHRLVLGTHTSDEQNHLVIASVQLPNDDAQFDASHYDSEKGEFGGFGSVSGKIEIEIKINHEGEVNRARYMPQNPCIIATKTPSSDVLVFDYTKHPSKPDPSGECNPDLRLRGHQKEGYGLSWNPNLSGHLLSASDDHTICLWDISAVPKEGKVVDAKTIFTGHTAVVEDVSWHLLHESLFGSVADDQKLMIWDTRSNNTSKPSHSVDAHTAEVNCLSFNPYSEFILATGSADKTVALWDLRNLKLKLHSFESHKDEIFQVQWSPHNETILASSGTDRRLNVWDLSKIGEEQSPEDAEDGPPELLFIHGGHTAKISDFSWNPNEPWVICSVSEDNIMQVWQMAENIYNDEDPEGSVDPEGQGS
Recombinant PRC2 (EZH2-Y641F), sequence (Q6ZN18 whole entry partner): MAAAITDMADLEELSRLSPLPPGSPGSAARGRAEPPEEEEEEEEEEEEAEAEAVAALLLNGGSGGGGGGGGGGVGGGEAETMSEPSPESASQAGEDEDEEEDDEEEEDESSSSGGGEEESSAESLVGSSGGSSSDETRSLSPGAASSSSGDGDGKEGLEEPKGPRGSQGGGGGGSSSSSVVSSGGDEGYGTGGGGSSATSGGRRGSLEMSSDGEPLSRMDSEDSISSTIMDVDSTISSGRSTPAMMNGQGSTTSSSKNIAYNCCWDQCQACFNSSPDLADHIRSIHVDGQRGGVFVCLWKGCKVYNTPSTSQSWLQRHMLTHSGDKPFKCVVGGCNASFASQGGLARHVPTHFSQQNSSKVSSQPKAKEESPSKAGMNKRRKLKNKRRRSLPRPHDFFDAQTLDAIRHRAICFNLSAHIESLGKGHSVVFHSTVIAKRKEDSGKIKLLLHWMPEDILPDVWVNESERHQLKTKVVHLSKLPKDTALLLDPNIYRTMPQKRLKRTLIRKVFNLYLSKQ

Pfeiffer cells = test: Cell proliferation test (cell counting kit-8, 6 days); assay type: cell-based; settings: 6 days' growth
Experimental: Cells were harvested by centrifuge and densities were determined using a CounterStar cell counter. Appropriate number of cells were plated in a 96-well culture plate and incubated overnight. Compounds to be tested were 1:3 diluted for 8 gradient points and added into corresponding wells. After 6 days' growth, cell counting kit-8 (Dojindo) was used to detect cell viability and absorbance values were read on Tecan infinite pro.

[2] = EZH2 Y641F IC50, Recombinant PRC2 (EZH2-Y641F)
[3] = read-out: EZH2 Y641F IC50, Recombinant PRC2 (EZH2-Y641F)

IC50 [1, 2]	IC50 [1, 3]	SMILES	IC50 (Pfeiffer cells; Homo sapiens, Pfeiffer, 144 h)	IC50 (Pfeiffer cells)
9 nM	–	CCN(c1cc(-c2cccnc2)cc2c(NCc3c(C)cc(C)[nH]c3=O)nccc12)[C@H]1CC[C@@H](N(C)C)CC1 [Compound Z-64]	357 nM	–
13 nM	–	CCN(c1cc(C#CCN2CCN(C)CC2)cc2c(NCc3c(C)cc(C)[nH]c3=O)nccc12)C1CCC(N(C)C)CC1 (stereo not drawn) [Compound Z-180]	380 nM	–
–	107 nM	CCN(c1cc(Cl)cc2c(NCc3c(C)cc(C)[nH]c3=O)nccc12)C1CCC(N(C)C)CC1 (stereo not drawn) [Compound Z-132]	–	301 nM
–	15 nM	CCN(c1cc(C#CCN2CCOCC2)cc2c(NCc3c(C)cc(C)[nH]c3=O)nccc12)[C@H]1CC[C@@H](N(C)C)CC1 [Compound Z-179]	–	540 nM
16 nM	–	CCN(c1cc(-c2ccc(CN3CCN(C)CC3)nc2)cc2c(NCc3c(C)cc(C)[nH]c3=O)nccc12)C1CCC(O)CC1 (stereo not drawn) [Compound Z-196]	583 nM	–
21 nM	–	CCN(c1cc(-c2ccc(N3CCN(C)CC3)nc2)cc2c(NCc3c(OC)cc(C)[nH]c3=O)nccc12)C1CCC(N(C)C)CC1 (stereo not drawn) [Compound Z-193]	620 nM	–
251 nM	–	CCN(c1cc(-c2cnc(N3CCOCC3)nc2)cc2c(NCc3c(C)cc(C)[nH]c3=O)nccc12)C1CCC(O)CC1 (stereo not drawn) [Compound Z-99]	201 nM	–
439 nM	–	CCN(c1cc(-c2cnc(CN3CCOCC3)c(F)c2)cc2c(NCc3c(C)cc(C)[nH]c3=O)nccc12)C1CCOCC1 [Compound Z-122]	833 nM	–
150 nM	–	CCN(c1cc(-c2ccncc2)cc2c(NCc3c(C)cc(C)[nH]c3=O)nccc12)[C@H]1CC[C@H](N(C)C)CC1 [Compound Z-73]	593 nM	–
253 nM	–	CCN(c1cc(C(=O)Nc2cccnc2)cc2c(NCc3c(C)cc(C)[nH]c3=O)nccc12)C1CCOCC1 [Compound Z-162]	–	–
21 nM	–	CCN(c1cc(-c2ccc(N3CCNCC3)nc2)cc2c(NCc3c(C)cc(C)[nH]c3=O)nccc12)C1CCC(O)CC1 (stereo not drawn) [Compound Z-159]	–	–
194 nM	–	CCN(c1cc(-c2cnc(N3CCN(C)CC3)nc2)cc2c(NCc3c(C)cc(C)[nH]c3=O)nccc12)C1CCC(C)(O)CC1 (stereo not drawn) [Compound Z-221, 3-((5-(ethyl(4-hydroxy-4-methylcyclohexyl)amino)-7-(2-(4-methylpiperazin-1-yl)pyrimidin-5-yl)isoquinolin-1-ylamino)methyl)-4,6-dimethyl pyridin-2(1H)-one]	–	–
50 nM	–	CCN(c1cc(-c2ccc(N3CCNCC3)nc2)cc2c(NCc3c(C)cc(C)[nH]c3=O)nccc12)C1CCOCC1 [Compound Z-151]	–	–
67 nM	–	CCN(c1cc(-c2ccc(C(=O)Nc3ccccn3)cc2)cc2c(NCc3c(C)cc(C)[nH]c3=O)nccc12)C1CCC(N(C)C)CC1 (stereo not drawn) [Compound Z-110]	–	–
7 nM	–	CCN(c1cc(-c2ccc(N3CCN(C)CC3)nc2)cc2c(NCc3c(C)cc(C)[nH]c3=O)nccc12)C1CCNCC1 [Compound Z-56]	–	–
331 nM	–	CCN(c1cc(C(=O)NC)cc2c(NCc3c(C)cc(C)[nH]c3=O)nccc12)C1CCOCC1 [Compound Z-161]	–	–
86 nM	–	CCN(c1cc(-c2ccc(N3CCN(C)CC3)nc2)cc2c(NCc3c(C)cc(C)[nH]c3=O)nccc12)C1CCN(C(C)=O)CC1 [Compound Z-57]	–	–
145 nM	–	CCN(c1cc(-c2ccc(CN3CCOCC3)cc2)cc2c(NCc3c(C)cc(C)[nH]c3=O)nccc12)C1CCC(NC(C)=O)CC1 (stereo not drawn) [Compound Z-33]	–	–
341 nM	–	CCN(c1cc(-c2ccc(N3CCOCC3)nc2)cc2c(NCc3c(C)cc(C)[nH]c3=O)nccc12)C1CCOCC1 [Compound Z-28]	–	–
504 nM	–	CCN(c1cc(Nc2cccnc2)cc2c(NCc3c(C)cc(C)[nH]c3=O)nccc12)[C@H]1CC[C@H](N(C)C)CC1 [Compound Z-182]	–	–

Second part, the compound before the results:

SMILES	IC50 [1, 2]	IC50 [1, 3]	IC50 (Pfeiffer cells; Homo sapiens, Pfeiffer, 144 h)	IC50 (Pfeiffer cells)
CCN(c1cc(-c2ccc(CN3CCN(C)CC3)nc2)cc2c(NCc3c(C)cc(C)[nH]c3=O)nccc12)[C@H]1CC[C@@H](N(C)C)CC1 [Compound Z-58]	–	–	–	359 nM
CCN(c1cc(C2=CCN(C)CC2)cc2c(NCc3c(C)cc(C)[nH]c3=O)nccc12)C1CCC(O)CC1 (stereo not drawn) [Compound Z-91]	75 nM	–	291 nM	–
CCN(c1cc(-c2ccc(CN3CCN(C(C)C)CC3)nc2)cc2c(NCc3c(C)cc(C)[nH]c3=O)nccc12)C1CCOCC1 [Compound Z-112]	96 nM	–	595 nM	–
CCN(c1cc(-c2ccc(CN3CCCCC3)cc2)cc2c(NCc3c(C)cc(C)[nH]c3=O)nccc12)C1CCC(N(C)C)CC1 (stereo not drawn) [Compound Z-37]	28 nM	–	991 nM	–
CCN(c1cc(-c2ccc(N3CCN(C)CC3)nc2)cc2c(NCc3c(C)cc(C)[nH]c3=O)nccc12)C1CCN(C2CC2)CC1 [Compound Z-74]	326 nM	–	799 nM	–
CCN(c1cc(Cl)cc2c(NCc3c(C)cc(C)[nH]c3=O)nccc12)C1CCNCC1 [Compound Z-201]	59 nM	–	133 nM	–
CCN(c1cc(-c2ccc(CN3CCN(C)CC3)nc2)cc2c(NCc3c(C)cc(C)[nH]c3=O)nccc12)C1CCOCC1 [Compound Z-118]	85 nM	–	973 nM	–
CCN(c1cc(-c2ccc(N3CCN(C)CC3)nc2)cc2c(NCc3c(C)cc(C)[nH]c3=O)nccc12)C1CCC(O)CC1 (stereo not drawn) [Compound Z-86]	128 nM	–	483 nM	–
CCN(c1cc(-c2cnc(CN3CCN(C)CC3)nc2)cc2c(NCc3c(C)cc(C)[nH]c3=O)nccc12)C1CCOCC1 [Compound Z-115]	47 nM	–	706 nM	–
CCN(c1cc(-c2cnc(N3CCOCC3)nc2)cc2c(NCc3c(C)cc(C)[nH]c3=O)nccc12)[C@H]1CC[C@@H](O)CC1 [Compound Z-108]	–	283 nM	–	612 nM
CCN(c1cc(-c2ccc(CN3CCOCC3)nc2)cc2c(NCc3c(C)cc(C)[nH]c3=O)nccc12)C1CCOCC1 [Compound Z-113]	153 nM	–	713 nM	–
CCN(c1cc(-c2cncnc2)cc2c(NCc3c(C)cc(C)[nH]c3=O)nccc12)C1CCC(N(C)C)CC1 (stereo not drawn) [Compound Z-65]	52 nM	–	972 nM	–
CCN(c1cc(N(C)c2cccnc2)cc2c(NCc3c(C)cc(C)[nH]c3=O)nccc12)[C@H]1CC[C@H](N(C)C)CC1 [Compound Z-183]	128 nM	–	395 nM	–
CCN(c1cc(OCCOC)cc2c(NCc3c(C)cc(C)[nH]c3=O)nccc12)C1CCC(N(C)C)CC1 (stereo not drawn) [Compound Z-206]	115 nM	–	234 nM	–
CCN(c1cc(-c2cnc(N3CCOCC3)nc2)cc2c(NCc3c(C)cc(C)[nH]c3=O)nccc12)C1CCN(C2CC2)CC1 [Compound Z-92]	–	–	–	688 nM
CCN(c1cc(-c2cnc(N3CCOCC3)nc2)cc2c(NCc3c(C)cc(C)[nH]c3=O)nccc12)[C@H]1CC[C@H](N(C)C)CC1 [Compound Z-46]	14 nM	–	362 nM	–

SMILES	IC50 [1, 2]	IC50 [1, 3]	IC50 (Pfeiffer cells; Homo sapiens, Pfeiffer, 144 h)	IC50 (Pfeiffer cells)
CCN(c1cc(-c2ccc(N3CCN(C)CC3)nc2)cc2c(NCc3c(C)cc(C)[nH]c3=O)nccc12)C1CCN(CCF)CC1 [Compound Z-76]	60 nM	–	–	–
CCN(c1cc(Cl)cc2c(NCc3c(C)cc(C)[nH]c3=O)nccc12)C1CCN(S(C)(=O)=O)CC1 [Compound Z-229]	429 nM	–	–	–
CCN(c1cc(-c2ccc(CN(C)C)cc2)cc2c(NCc3c(C)cc(C)[nH]c3=O)nccc12)C1CCOCC1 [Compound Z-30]	298 nM	–	–	–
CCN(c1cc(-c2cnn(C)c2)cc2c(NCc3c(C)cc(C)[nH]c3=O)nccc12)C1CCOCC1 [Compound Z-7, 3-((5-(ethyl (tetrahydro-2H-pyran-4-yl)amino)-7-(1-methyl-1H-pyrazol-4-yl)isoquinoline-1-ylamino)methyl)-4,6-dimethylpyridin-2(1H)-one]	481 nM	–	–	–
CCN(c1cc(-c2ccc(NC3CCN(C)CC3)cc2)cc2c(NCc3c(C)cc(C)[nH]c3=O)nccc12)C1CCOCC1 [Compound Z-158]	367 nM	–	–	–
CCN(c1cc(C(=O)Nc2ccccn2)cc2c(NCc3c(C)cc(C)[nH]c3=O)nccc12)C1CCOCC1 [Compound Z-164]	371 nM	–	–	–
CCN(c1cc(-c2ccc(N3CCOCC3)nc2)cc2c(NCc3c(C)cc(C)[nH]c3=O)nccc12)C1CCN(C2CC2)CC1 [Compound Z-87]	474 nM	–	–	–
CCN(c1cc(-c2ccc(N3CCN(C)CC3)c(F)c2)cc2c(NCc3c(C)cc(C)[nH]c3=O)nccc12)C1CCC(N(C)C)CC1 (stereo not drawn) [Compound Z-80]	26 nM	–	–	–
CCN(c1cc(-c2ccc(N3CCN(C)CC3)nc2)cc2c(NCc3c(C)cc(C)[nH]c3=O)nccc12)C1CCOCC1 [Compound Z-24]	152 nM	–	–	–
CCN(c1cc(Cl)cc2c(NCc3c(C)cc(C)[nH]c3=O)nccc12)C1CCN(C(=O)CO)CC1 [Compound Z-176]	139 nM	–	–	–
CCN(c1cc(-c2ccc(N3CCOCC3)nc2)cc2c(NCc3c(C)cc(C)[nH]c3=O)nccc12)C1CCC(O)CC1 (stereo not drawn) [Compound Z-70]	–	–	–	516 nM
CCN(c1cc(Cl)cc2c(NCc3c(C)cc(C)[nH]c3=O)nccc12)C1CCS(=O)(=O)CC1 [Compound Z-139]	418 nM	–	–	–
C=C(C)c1cc(N(CC)C2CCC(N(C)C)CC2)c2ccnc(NCc3c(C)cc(C)[nH]c3=O)c2c1 (stereo not drawn) [Compound Z-109]	182 nM	–	–	–
CCN(c1cc(-c2ccc(N3CCNCC3)nc2)cc2c(NCc3c(C)cc(C)[nH]c3=O)nccc12)C1CCC(N(C)C)CC1 (stereo not drawn) [Compound Z-157]	16 nM	–	–	–
CCN(c1cc(Br)cc2c(NCc3c(C)cc(C)[nH]c3=O)nccc12)C1CCC(N(C)C)CC1 (stereo not drawn) [Compound Z-15, 3-((7-bromo-5-((4-(dimethylamino)cyclohexyl) (ethyl)amino)isoquinolin-1-ylamino)methyl)-4,6-dimethyl-2(1H)-one]	91 nM	–	–	–
CCN(c1cc(Cl)cc2c(NCc3c(C)cc(C)[nH]c3=O)nccc12)C1CCN(C(=O)CC#N)CC1 [Compound Z-175]	182 nM	–	–	–
